# Laboratory results: US20250073241A1, “Combination Therapies Using PRMT5 Inhibitors for the Treatment of Cancer” (MIRATI THERAPEUTICS, INC., priority 2021, published 2025)
# Legend:
# Assay type in all cases: in vivo, mice
# [1] = tested on: A549 PRMT-034 xenograft tumors; test: A549 PRMT-034 lung tumor xenograft, Example 6; conditions: Palbociclib 130 mg/kg PO QD
# Description: (§1) The compound of the disclosure was evaluated in several different lung tumor xenograft models: HCC4006, SW1573 PRMT5-044, H1650, and A549 PRMT-034. […] 2021, incorporated by reference in its entirety.
# H1650 xenograft tumors = test: H1650 lung tumor xenograft, Example 5; conditions: Palbociclib 130 mg/kg PO QD
# Description: as §1
# HCC4006 xenograft tumors = test: HCC4006 lung tumor xenograft, Example 3; conditions: Palbociclib 130 mg/kg PO QD
# Description: as §1
# [2] = tested on: PANC-05-04 xenograft tumors; test: PANC-05-04 pancreatic tumor xenograft, Example 7; conditions: Palbociclib 130 mg/kg PO QD
# Description: (§2) The compound of the disclosure was evaluated in a couple of different pancreatic tumor xenograft models: PANC-05-04 and BXPC-3.
# BXPC-3 xenograft tumors = test: BXPC-3 pancreatic tumor xenograft, Example 8; conditions: Palbociclib 130 mg/kg PO QD
# Description: as §2
# MKN45 xenograft tumors = test: MKN45 gastric tumor xenograft, Example 9; conditions: Palbociclib 130 mg/kg PO QD
# Description: Immunodeficient female nu/nu mice were implanted with 5×10^6 LU99 lung cancer cells in 50% Matrigel. Tumors were measured using calipers until they reached approximately 150-200 mm^3. Animals were randomized to receive A) vehicle (0.5% methylcellulose (4000 cps)/0.2% Tween80 in water), B) a PRMT5 inhibitor, C) CDK4/6 inhibitor, or D) the PRMT5 inhibitor and CDK4/6 inhibitor, all administered orally (PO) for 21 days. Tumor volume was measured twice a week (n=5/treatment group). Average tumor volume and standard error of the mean was calculated and plotted at each study day in GraphPad.
# [3] = tested on: KRAS^G12C and CDKN2A/MTAP^DEL lung tumor xenograft LU99 model; test: LU99 lung tumor xenograft, Example 2 (MRTX7477 / palbociclib); conditions: palbociclib 130 mg/kg PO QD
# Excerpt: (§3) 2021, incorporated by reference in its entirety.
# [4] = tested on: KRAS^G12C and CDKN2A/MTAP^DEL lung tumor xenograft LU99 model; test: LU99 lung tumor xenograft, Example 1 (MRTX9768 / palbociclib); conditions: palbociclib 130 mg/kg PO QD
# Description: as §3
# The CDK4/6 inhibitor used in this example was palbociclib administered at 130mg/kg once a day (QD). Palbociclib is 6-acetyl-8-cyclopentyl-5-methyl-2-[(5-piperazin-1-ylpyridin-2-yl)amino]pyrido[2,3-d]pyrimidin-7-one, and is sold as Ibrance® available from Pfizer Inc., New York, New York.
# [5] = Day 1, MRTX1719 100 mg/kg PO QD
# [6] = Day 8, MRTX1719 100 mg/kg PO QD
# [7] = Day 12, MRTX1719 100 mg/kg PO QD
# [8] = Day 15, MRTX1719 100 mg/kg PO QD
# [9] = Day 19, MRTX1719 100 mg/kg PO QD
# [10] = Day 22, MRTX1719 100 mg/kg PO QD
# [11] = Day 26, MRTX1719 100 mg/kg PO QD
# [12] = Day 29, MRTX1719 100 mg/kg PO QD
# [13] = Day 34, MRTX1719 100 mg/kg PO QD
# [14] = Day 0, MRTX1719 100 mg/kg PO QD
# [15] = Day 3, MRTX1719 100 mg/kg PO QD
# [16] = Day 7, MRTX1719 100 mg/kg PO QD
# [17] = Day 10, MRTX1719 100 mg/kg PO QD
# [18] = Day 14, MRTX1719 100 mg/kg PO QD
# [19] = Day 17, MRTX1719 100 mg/kg PO QD
# [20] = Day 20, MRTX1719 100 mg/kg PO QD
# [21] = Day 2, MRTX1719 100 mg/kg PO QD
# [22] = Day 5, MRTX1719 100 mg/kg PO QD
# [23] = Day 9, MRTX1719 100 mg/kg PO QD
# [24] = Day 16, MRTX1719 100 mg/kg PO QD
# [25] = Day 13, MRTX1719 50 mg/kg PO QD
# [26] = Day 16, MRTX1719 50 mg/kg PO QD
# [27] = Day 20, MRTX1719 50 mg/kg PO QD
structure (smiles),measurement,setting,value
"Cn1ncc(-c2ccc3c(=O)[nH]nc(CN)c3c2)c1-c1c(F)c(Cl)cc(OC2CC2)c1C#N [MRTX1719, (2M)-2-(4-(4-(aminomethyl)-1-oxo-1,2-dihydrophthalazin-6-yl)-1-methyl-1H-pyrazol-5-y1)-4-chloro-6-cyclopropoxy-3-fluorobenzonitrile]","Tumor Volume, Mean",[1]; [5],118 mm^3
same,"Tumor Volume, Mean",[1]; [6],169 mm^3
same,"Tumor Volume, Mean",[1]; [7],200 mm^3
same,"Tumor Volume, Mean",[1]; [8],210 mm^3
same,"Tumor Volume, Mean",[1]; [9],214 mm^3
same,"Tumor Volume, Mean",[1]; [10],221 mm^3
same,"Tumor Volume, Mean",[1]; [11],263 mm^3
same,"Tumor Volume, Mean",[1]; [12],288 mm^3
same,"Tumor Volume, Mean",[1]; [13],325 mm^3
same,"Tumor Volume, Mean",H1650 xenograft tumors; [14],146 mm^3
same,"Tumor Volume, Mean",H1650 xenograft tumors; [15],231 mm^3
same,"Tumor Volume, Mean",H1650 xenograft tumors; [16],471 mm^3
same,"Tumor Volume, Mean",H1650 xenograft tumors; [17],599 mm^3
same,"Tumor Volume, Mean",H1650 xenograft tumors; [18],625 mm^3
same,"Tumor Volume, Mean",H1650 xenograft tumors; [19],711 mm^3
same,"Tumor Volume, Mean",H1650 xenograft tumors; [20],635 mm^3
same,"Tumor Volume, Mean",HCC4006 xenograft tumors; [14],126 mm^3
same,"Tumor Volume, Mean",HCC4006 xenograft tumors; [21],150 mm^3
same,"Tumor Volume, Mean",HCC4006 xenograft tumors; [22],159 mm^3
same,"Tumor Volume, Mean",HCC4006 xenograft tumors; [23],154 mm^3
same,"Tumor Volume, Mean",HCC4006 xenograft tumors; [7],156 mm^3
same,"Tumor Volume, Mean",HCC4006 xenograft tumors; [24],159 mm^3
same,"Tumor Volume, Mean",HCC4006 xenograft tumors; [20],78 mm^3
same,"Tumor Volume, Mean",[2]; [14],149 mm^3
same,"Tumor Volume, Mean",[2]; [15],382 mm^3
same,"Tumor Volume, Mean",[2]; [16],519 mm^3
same,"Tumor Volume, Mean",[2]; [17],559 mm^3
same,"Tumor Volume, Mean",[2]; [18],563 mm^3
same,"Tumor Volume, Mean",[2]; [19],624 mm^3
same,"Tumor Volume, Mean",[2]; [20],603 mm^3
same,"Tumor Volume, Mean","BXPC-3 xenograft tumors; Day 0, MRTX1719 50 mg/kg PO QD",122 mm^3
same,"Tumor Volume, Mean","BXPC-3 xenograft tumors; Day 3, MRTX1719 50 mg/kg PO QD",174 mm^3
same,"Tumor Volume, Mean","BXPC-3 xenograft tumors; Day 6, MRTX1719 50 mg/kg PO QD",206 mm^3
same,"Tumor Volume, Mean","BXPC-3 xenograft tumors; Day 9, MRTX1719 50 mg/kg PO QD",310 mm^3
same,"Tumor Volume, Mean",BXPC-3 xenograft tumors; [25],359 mm^3
same,"Tumor Volume, Mean",BXPC-3 xenograft tumors; [26],372 mm^3
same,"Tumor Volume, Mean",BXPC-3 xenograft tumors; [27],368 mm^3
same,"Tumor Volume, Mean",MKN45 xenograft tumors; [14],105 mm^3
same,"Tumor Volume, Mean",MKN45 xenograft tumors; [15],165 mm^3
same,"Tumor Volume, Mean",MKN45 xenograft tumors; [16],207 mm^3
same,"Tumor Volume, Mean",MKN45 xenograft tumors; [17],221 mm^3
same,"Tumor Volume, Mean",MKN45 xenograft tumors; [18],214 mm^3
same,"Tumor Volume, Mean",MKN45 xenograft tumors; [19],230 mm^3
same,"Tumor Volume, Mean",MKN45 xenograft tumors; [20],221 mm^3
"CC(=O)c1c(C)c2cnc(Nc3ccc(N4CCNCC4)cn3)nc2n(C2CCCC2)c1=O [palbociclib, 6-acetyl-8-cyclopentyl-5-methyl-2-[(5-piperazin-1-ylpyridin-2-yl)amino]pyrido[2,3-d]pyrimidin-7-one]","Tumor Volume, Mean",[1]; [5],118 mm^3
same,"Tumor Volume, Mean",[1]; [22],134 mm^3
same,"Tumor Volume, Mean",[1]; [6],155 mm^3
same,"Tumor Volume, Mean",[1]; [7],177 mm^3
same,"Tumor Volume, Mean",[1]; [8],189 mm^3
same,"Tumor Volume, Mean",[1]; [9],179 mm^3
same,"Tumor Volume, Mean",[1]; [10],186 mm^3
same,"Tumor Volume, Mean",[1]; [11],220 mm^3
same,"Tumor Volume, Mean",[1]; [12],255 mm^3
same,"Tumor Volume, Mean",[1]; [13],263 mm^3
same,"Tumor Volume, Mean",H1650 xenograft tumors; [14],147 mm^3
same,"Tumor Volume, Mean",H1650 xenograft tumors; [15],268 mm^3
same,"Tumor Volume, Mean",H1650 xenograft tumors; [16],356 mm^3
same,"Tumor Volume, Mean",H1650 xenograft tumors; [17],493 mm^3
same,"Tumor Volume, Mean",H1650 xenograft tumors; [18],480 mm^3
same,"Tumor Volume, Mean",H1650 xenograft tumors; [19],589 mm^3
same,"Tumor Volume, Mean",H1650 xenograft tumors; [20],743 mm^3
same,"Tumor Volume, Mean",HCC4006 xenograft tumors; [14],127 mm^3
same,"Tumor Volume, Mean",HCC4006 xenograft tumors; [21],155 mm^3
same,"Tumor Volume, Mean",HCC4006 xenograft tumors; [22],143 mm^3
same,"Tumor Volume, Mean",HCC4006 xenograft tumors; [23],117 mm^3
same,"Tumor Volume, Mean",HCC4006 xenograft tumors; [7],115 mm^3
same,"Tumor Volume, Mean",HCC4006 xenograft tumors; [24],111 mm^3
same,"Tumor Volume, Mean",HCC4006 xenograft tumors; [20],100 mm^3
same,Tumor Volume,"[3]; Day 1, MRTX7477 200 mg/kg PO BID",209.8 mm^3
same,Tumor Volume,"[3]; Day 5, MRTX7477 200 mg/kg PO BID",215.9 mm^3
same,Tumor Volume,"[3]; Day 8, MRTX7477 200 mg/kg PO BID",277.3 mm^3
same,Tumor Volume,"[3]; Day 12, MRTX7477 200 mg/kg PO BID",359.4 mm^3
same,Tumor Volume,"[3]; Day 15, MRTX7477 200 mg/kg PO BID",413.5 mm^3
same,Tumor Volume,"[3]; Day 19, MRTX7477 200 mg/kg PO BID",675.9 mm^3
same,Tumor Volume,"[3]; Day 21, MRTX7477 200 mg/kg PO BID",827.0 mm^3
same,Tumor Volume,"[3]; Day −2, MRTX7477 200 mg/kg PO BID",133.4 mm^3
same,"Tumor Volume, Mean",[2]; [14],149 mm^3
same,"Tumor Volume, Mean",[2]; [15],319 mm^3
same,"Tumor Volume, Mean",[2]; [16],365 mm^3
same,"Tumor Volume, Mean",[2]; [17],378 mm^3
same,"Tumor Volume, Mean",[2]; [18],341 mm^3
same,"Tumor Volume, Mean",[2]; [19],391 mm^3
same,"Tumor Volume, Mean",[2]; [20],350 mm^3
same,"Tumor Volume, Mean","BXPC-3 xenograft tumors; Day 0, MRTX1719 50 mg/kg PO QD",122 mm^3
same,"Tumor Volume, Mean","BXPC-3 xenograft tumors; Day 3, MRTX1719 50 mg/kg PO QD",162 mm^3
same,"Tumor Volume, Mean","BXPC-3 xenograft tumors; Day 6, MRTX1719 50 mg/kg PO QD",174 mm^3
same,"Tumor Volume, Mean","BXPC-3 xenograft tumors; Day 9, MRTX1719 50 mg/kg PO QD",187 mm^3
same,"Tumor Volume, Mean",BXPC-3 xenograft tumors; [25],195 mm^3
same,"Tumor Volume, Mean",BXPC-3 xenograft tumors; [26],190 mm^3
same,"Tumor Volume, Mean",BXPC-3 xenograft tumors; [27],193 mm^3
same,"Tumor Volume, Mean","[4]; Day 0, MRTX9768 100 mg/kg PO BID",184.39 mm^3
same,"Tumor Volume, Mean","[4]; Day 3, MRTX9768 100 mg/kg PO BID",247.02 mm^3
same,"Tumor Volume, Mean","[4]; Day 7, MRTX9768 100 mg/kg PO BID",355.77 mm^3
same,"Tumor Volume, Mean","[4]; Day 10, MRTX9768 100 mg/kg PO BID",482.60 mm^3
same,"Tumor Volume, Mean","[4]; Day 14, MRTX9768 100 mg/kg PO BID",731.56 mm^3
same,"Tumor Volume, Mean","[4]; Day 17, MRTX9768 100 mg/kg PO BID",914.41 mm^3
same,"Tumor Volume, Mean","[4]; Day 21, MRTX9768 100 mg/kg PO BID",1148.44 mm^3
same,"Tumor Volume, Mean",MKN45 xenograft tumors; [14],106 mm^3
same,"Tumor Volume, Mean",MKN45 xenograft tumors; [15],158 mm^3
same,"Tumor Volume, Mean",MKN45 xenograft tumors; [16],236 mm^3
same,"Tumor Volume, Mean",MKN45 xenograft tumors; [17],264 mm^3
same,"Tumor Volume, Mean",MKN45 xenograft tumors; [18],330 mm^3
same,"Tumor Volume, Mean",MKN45 xenograft tumors; [19],434 mm^3
same,"Tumor Volume, Mean",MKN45 xenograft tumors; [20],474 mm^3
